Source: patent US20240384268A1, “Oligonucleotides” (Hudson Institute of Medical Research, priority 2021, published 2024)
In the oligonucleotide strings, read from the 5' end, every base follows the letter of its sugar. An asterisk marks phosphorothioate; unmarked linkages are phosphodiester. Other units and linkages are bracketed, terminal groups are in braces. A string of capitals states the bases alone. m = 2'-O-methyl

Target: T1, human TLR7 (Homo sapiens, UniProt Q9NYK1)
T1 construct: HA; host or cells: 293XL-hTLR7-HA (HEK293)
T1 sequence (Q9NYK1 27-1049): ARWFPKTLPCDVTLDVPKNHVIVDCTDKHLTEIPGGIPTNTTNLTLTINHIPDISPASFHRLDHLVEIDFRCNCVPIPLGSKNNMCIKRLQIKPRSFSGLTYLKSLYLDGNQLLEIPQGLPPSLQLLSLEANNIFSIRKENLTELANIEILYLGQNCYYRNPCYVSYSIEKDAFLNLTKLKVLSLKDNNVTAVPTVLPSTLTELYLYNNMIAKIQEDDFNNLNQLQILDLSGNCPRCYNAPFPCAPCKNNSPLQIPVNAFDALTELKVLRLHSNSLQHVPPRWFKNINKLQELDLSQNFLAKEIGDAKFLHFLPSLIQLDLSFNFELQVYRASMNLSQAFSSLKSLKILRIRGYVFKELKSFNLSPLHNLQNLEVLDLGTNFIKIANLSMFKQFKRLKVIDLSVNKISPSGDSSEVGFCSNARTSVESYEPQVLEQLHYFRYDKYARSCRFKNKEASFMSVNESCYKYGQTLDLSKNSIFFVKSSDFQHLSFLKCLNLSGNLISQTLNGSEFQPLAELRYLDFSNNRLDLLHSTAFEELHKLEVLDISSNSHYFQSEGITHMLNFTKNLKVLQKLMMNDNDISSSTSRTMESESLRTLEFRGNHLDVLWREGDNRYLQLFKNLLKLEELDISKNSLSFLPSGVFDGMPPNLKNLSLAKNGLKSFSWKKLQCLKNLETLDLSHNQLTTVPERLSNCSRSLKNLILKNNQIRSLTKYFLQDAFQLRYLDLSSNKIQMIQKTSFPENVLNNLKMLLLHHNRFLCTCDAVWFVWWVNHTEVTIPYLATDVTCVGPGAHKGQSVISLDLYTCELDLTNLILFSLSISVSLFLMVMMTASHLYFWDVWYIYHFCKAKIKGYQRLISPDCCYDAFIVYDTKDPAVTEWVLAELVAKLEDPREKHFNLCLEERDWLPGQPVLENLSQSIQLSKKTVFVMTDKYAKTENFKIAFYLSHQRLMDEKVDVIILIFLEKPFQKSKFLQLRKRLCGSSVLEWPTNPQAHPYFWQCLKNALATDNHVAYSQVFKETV
Experiment: HEK-TLR7 NF-κB-luciferase reporter, R848 stimulation
Type: cell-based
Conditions: for TLR7 400 nM: 3mer 2'OMe ASO at 400 nM; for TLR7 400 nM / TLR7 2 uM: HEK-TLR7, value relative to Ligand only = 1.000, NT = 0.000; for TLR7 2 uM: 3mer 2'OMe ASO at 2 uM; for TLR7 100 nM (averaged NF-κB-Luciferase level relative to R848 condition): ASO 100 nM; for TLR7 100 nM (averaged NF-κB-Luciferase level relative to R848 condition) / TLR7 500 nM (averaged NF-κB-Luciferase level relative to R848 condition): relative to R848 only, given as fraction; for TLR7 500 nM (averaged NF-κB-Luciferase level relative to R848 condition): ASO 500 nM
Description: In such examples, inhibition of TLR7 activity can be identified by observation of an overall decreased TLR7 response of the cell population, or a lower proportion of cells having TLR7-positive activity as compared to positive control condition in which cells are treated with TLR7 agonist in the absence of the oligonucleotide (or in the presence of an appropriate control inhibitory agent). In one example, 293XLhTLR7 (referred to as HEK-TLR7) cells are transfected with pNF-κB-Luc4 reporter, incubated with an oligonucleotide, and then stimulated with R848. TLR7 activity can be determined by a luciferase assay, which measures activated NF-κB by luminescence. TLR7 activity can also be analysed by measuring cytokine levels, for example by ELISA. […] TLR7 activity may then be assessed by the gene or protein expression of TLR7-responsive genes, such as Tnfα and Oas3.
For cGAS stimulations, cells were treated for indicated duration with ASOs, prior to transfection with ISD70 (human cells) or ISD45 (mouse cells) (the ASOs were not washed off prior to ISD transfection unless otherwise indicated). The cGAS ligands ISD45 (Stetson and Medzhitov, 2006) and ISD70 (also known as VACV-70 (Unterholzner et al., 2010)) (Table 1) were resuspended as follows: 5 1d of sense and 5 μl of antisense strands at 10 μg/μl were added to 90 μl PBS under sterile conditions, heated at 75° C. for 30 min, prior to letting cool down at room temperature and aliquoting (stock at 1 μg/1 l). The ISDs were transfected at a concentration of […] at a ratio of 1 μg:1 μl with Lipofectamine 2000 in Opti-MEM (Thermo Fisher Scientific). HEK-TLR3, HEK-TLR7 and […] were treated with indicated concentration of ASOs for 20-50 min, prior to stimulation with poly(I:C) (Invivogen), R848 (Invivogen), Motolimod (MedChemExpress) and the Class B CpG oligonucleotides ODN 2006 (synthesised by IDT and resuspended in RNase-free TE buffer [Table 1]), respectively. The TLR2/1 agonist PAM3CSK4 (Invivogen), the TLR4 agonist lipopolysaccharide (Invivogen), the Class B CpG oligonucleotides ODN 1826 (synthesised by IDT and resuspended in RNase-free TE buffer), the mouse Sting agonist DMXAA (Cayman) and the human STING agonist (compound #3 from (Raanjulu et al., 2018), referred to as GSK herein—kind gift from Cancer Therapeutics CRC, Australia) were used at indicated concentrations. Aspirin (Sigma—A2093) was resuspended in pure medium to 10 mM, filter sterilised and added to the cells at 2 mM final. All ASOs were synthesised by Integrated DNA Technologies (IDT), and resuspended in RNase-free TE buffer, pH 8.0 (Thermo Fisher Scientific). Cell viability was assessed by adding 1× fresh resazurin solution to the wells (10λ solution made up with 7 mg resazurin [Sigma—R7017] dissolved in 3.5 ml PBS, sterile filtered at […]) for 4 h, prior to reading at with a Fluostar OPTIMA (BMG LABTECH) plate-reader (fluorescence: Excitation 535 nm, Emission 590); wells with medium only and 1× resazurin were used as blanks.
Following transfection, the cells were collected from the 6-wells and aliquoted into 96-wells, just before ASO and overnight TLR stimulation (as above described). Similarly, the LL171 cells expressing and ISRE-Luc reporter were treated overnight.

Sequence | TLR7 400 nM | TLR7 2 uM | TLR7 100 nM (averaged NF-κB-Luciferase level relative to R848 condition) | TLR7 500 nM (averaged NF-κB-Luciferase level relative to R848 condition)
AAU (antisense mA*mA*mU) | 1.340 | 0.888 |  | 
ACACTTCGTGGGGTCC (antisense; LNA-modified, pattern not given here) [HPRT LNA-665 V1] |  |  | 0.548 | 0.086
ACU (antisense mA*mC*mU) | 1.322 | 0.916 |  | 
AGU (antisense mA*mG*mU) | 1.025 | 0.952 |  | 
AUA (antisense mA*mU*mA) | 1.171 | 0.905 |  | 
AUG (mA*mU*mG) | 0.987 | 0.602 |  | 
AUU (mA*mU*mU) | 1.221 | 0.700 |  | 
CAACACTTCGTGGGGT (antisense; LNA-modified, pattern not given here) [HPRT LNA-667 V1] |  |  | 0.663 | 0.476
CAU (mC*mA*mU) | 1.288 | 0.995 |  | 
CCAAGATCAGCAGTCT (antisense; LNA-modified, pattern not given here) [CTNN2B-2341 LNA KL] |  |  | 0.882 | 0.697
CCATCCATGAGGTCCT (antisense; LNA-modified, pattern not given here) [CTNN2B-2545 LNA V1] |  |  | 0.992 | 0.644
CCU (mC*mC*mU) | 1.210 | 0.880 |  | 
CGU (mC*mG*mU) | 1.372 | 0.963 |  | 
CUA (mC*mU*mA) | 1.388 | 0.953 |  | 
CUC (mC*mU*mC) | 1.288 | 0.984 |  | 
CUG (mC*mU*mG) | 1.405 | 0.804 |  | 
GATAGCACCTTCAGCA (antisense; LNA-modified, pattern not given here) [CTNN2B-1294 LNA KL] |  |  | 0.434 | 0.049
GCAGGCTCAGTGATGT (antisense; LNA-modified, pattern not given here) [CTNN2B-1642 LNA V1] |  |  | 0.676 | 0.189
GCATCCACCACGTCGT (antisense; LNA-modified, pattern not given here) [EGFR-3267 LNA V1] |  |  | 0.555 | 0.085
GCCATCCACTTGATAG (antisense; LNA-modified, pattern not given here) [EGFR-2874 LNA V1] |  |  | 0.671 | 0.123
GCCATGCTGGCTCGGA (antisense; LNA-modified, pattern not given here) [CAMSAP1-2584 LNA V1] |  |  | 0.638 | 0.175
GCCATGTTTCTTCTTG (antisense; LNA-modified, pattern not given here) [MB21D1-1248 LNA KL] |  |  | 0.816 | 0.021
GCU (mG*mC*mU) | 1.339 | 0.852 |  | 
GGCTGGAATCCGAGTT (antisense; LNA-modified, pattern not given here) [EGFR-4705 LNA KL] |  |  | 0.417 | 0.041
GGTTACGGCTCAGTAT (antisense; LNA-modified, pattern not given here) [CAMSAP1-4295 LNA KL] |  |  | 0.438 | 0.140
